Results published in US20100144737A1, “METHODS FOR INHIBITING T HELPER CELL DIFFERENTIATION” (FibroGen, Inc., priority 2008, published 2010).

How the values were obtained:
[1] = test system: naïve CD4+T Cells; assay: T helper cell synthesis of pro-inflammatory (IFN-γ) and anti-inflammatory (IL-5) cytokines; format: cell-based, human; conditions: seven days
Method: To examine the effect of compounds and methods of the present invention on T helper cell synthesis of pro-inflammatory and anti-inflammatory cytokines, the following studies were performed. Human cord blood naive CD4+T Cells (AllCells LLC, Emeryville, Calif.) were stimulated (i.e., T cell receptor (TCR) stimulation) by seeding into 96-well culture dishes coated with 5 μg/ml anti-CD3 antibody (clone UCHT1, R&D Systems, Minneapolis, Minn.), and 5 μg/ml anti-CD28 antibody (clone ANC28.1/D10, Ancell Corporation, Bayport, Minn.), and cultured at 37° C., 5% CO2 in RPMI-1640 (Mediatech Inc., Hemdon, Va.) containing 1% FBS, 1 U/ml penicillin-1 μg/ml streptomycin (Invitrogen Corporation, Carlsbad, Calif.), and 50 U/ml IL-2 (Roche Diagnostics Corporation, Indianapolis, Ind.). At time of seeding, cells were treated according to one of the following conditions: 1) media alone (Con); 2) 10 ng/ml IL4, 10 μg/ml anti-IFN-γ antibody, and 10 μg/ml anti-IL-12 antibody (R&D Systems, Minneapolis, Minn.); or 3) 2 ng/ml IL-12 and 10 μg/ml anti-IL-4 antibody. […] The cell-conditioned media was collected and analyzed for IFN-γ levels (a pro-inflammatory cytokine) and IL-5 levels (an anti-inflammatory cytokine) using MS2400 Human Tissue Culture Kits (MesoScale Technologies, Gaithersburg, Md.) according to the manufacturer's instructions.

[2] = test system: naïve T helper cells; assay: Th1 cell differentiation: IFN-γ secretion after second and third TCR stimulation following washout; format: cell-based, human
Method: The effectiveness of compounds of the present invention at reducing Th1 differentiation was examined as follows. Th1 differentiation was induced by culturing anti-CD3 stimulated T cells in the presence of exogenous IL-12. Human cord blood naive T helper cells (AllCells LLC, Emeryville, Calif.) were stimulated (i.e., T cell receptor (TCR) stimulation) by seeding into 96-well culture dishes coated with 5 μg/ml anti-CD3 antibody (clone UCHT1, R&D Systems, Minneapolis, Minn.), and 5 μg/ml anti-CD28 antibody (clone ANC28.1/D10, Ancell Corporation, Bayport, Minn.), and cultured at 37° C., 5% CO2 in RPMI-1640 (Mediatech Inc., Hemdon, Va.) containing 1% FBS, 1 U/ml penicillin-1 μg/ml streptomycin (Invitrogen Corporation, Carlsbad, Calif.), and 50 U/ml IL-2 (Roche Diagnostics Corporation, Indianapolis, Ind.). At time of seeding, cells were cultured with media alone or with media containing 2 ng/ml IL-12 and 10 μg/ml anti-IL-4 to induce Th1 cell differentiation. […]
The cells were then collected, washed twice with RPMI-1640 media containing 1% FBS, and counted before equal numbers of cells per well were re-stimulated (second T cell receptor (TCR) stimulation following washout of all prior treatments) by re-seeding the cells into 96-well culture dishes coated with 5 μg/ml anti-CD3 antibody and 5 μg/ml anti-CD28 antibody. […] After 24 hours the conditioned media from the cells was collected and analyzed for IFN-γ levels using a MS2400 Tissue Culture Kit (MesoScale Technologies, Gaithersburg, Md.) according to the manufacturer's instructions.
Thirteen days after the second TCR stimulation described above, the cells were collected, washed twice with RPMI-1640 media containing 1% FBS, and counted before equal numbers of cells per well were stimulated a third time (third TCR stimulation) by re-seeding into 96-well culture dishes coated with 5 μg/ml anti-CD3 antibody and 5 μg/ml anti-CD28 antibody. […]
In another series of experiments, the effectiveness of compounds of the present invention at reducing Th1 differentiation was determined. […]

[3] = test system: activated T cells (PMBCs); assay: IFN-γ and TNF-α levels ex vivo following T cell activation in vivo (peptidoglycan-polysaccharide polymer injection); parameters: species or system Lewis rats; conditions: 40 mg/kg oral gavage, days 28-44; PMBCs isolated day 44, anti-CD3, 72 h, ELISA
Method: The effect of methods and compounds of the present invention on INF-γ and TNF-α expression following in vivo activation was examined as follows. In these experiments, in vivo T cell activation was first induced by eliciting an inflammatory reaction in rats by injection of peptidoglycan-polysaccharide polymers. An exemplary compound of the present invention was then administered to the animals. T cells were then isolated from the blood of the animals and analyzed ex vivo for IFN-γ and TNF-α secretion. Female Lewis rats (150-200 gm; Harlan, Indianapolis, Ind.) were injected intra-peritoneal with peptidoglycan-polysaccharide polymers (15 μg/gm body weight, Lee Laboratories, Grayson, Ga.). Animals were administered Compound A (40 mg/kg) via oral gavage on days 28, 30, 32, 35, 37, 39, 42, and 44 following peptidoglycan-polysaccharide polymer injection. Peripheral blood mononuclear cells (PMBCs) were isolated from the blood of the animals by Ficol gradient (BD Vacutainer CPT tubes) on day 44. Equal numbers of PMBCs (50,000 cells/well) were plated on culture dishes coated with anti-CD3 antibodies in RPMI-1640 media containing 10% serum, and the cells were cultured for 72 h. Supernatants from the cell cultures were tested for IFN-γ and TNF-α levels using commercially-available ELISA assays (R&D).

How did the “IL-12-mediated increase in IFN-γ secretion” value ([1]; 2 ng/ml IL-12 and anti-IL-4 antibody) turn out when `Cc1nc(C(=O)NCC(=O)O)c(O)c2ccc(Oc3ccccc3)cc12` [Compound A, [(4-Hydroxy-1-methyl-7-phenoxy-isoquinoline-3-carbonyl)-amino]-acetic acid] was run?
The value was “reduced the IL-12-mediated increase in IFN-γ secretion”.

And the IL-5 levels ([1]; 10 ng/ml IL4, anti-IFN-γ and anti-IL-12 antibody, vs IL-4 alone)?
Its IL-5 levels is “increased IL-5 levels”.

And the “IFN-γ secretion following the second TCR stimulation” value ([2]; compound present only during first TCR stimulation (seven days) with IL-12, 24 hours after re-stimulation)?
The value was “reduced IFN-γ secretion”.

And the “IFN-γ secretion after a third TCR stimulation” value ([2]; compound present only during first TCR stimulation with IL-12, thirteen days after the second stimulation, 24 hours)?
The value was “decreased IFN-γ secretion”.

What about the “IFN-γ secretion from the activated T cells, measured ex vivo” value [3] of the same molecule?
Its value is “effective at decreasing”.

And the “TNF-α secretion from the activated T cells, measured ex vivo” value [3]?
The value was “effective at decreasing”.
